IC50 data for four compounds are collected here from BindingDB's records for doi:10.1016/j.jmb.2006.12.004 (University of Marburg, 2007).

In the assay the target is Aldo-keto reductase family 1 member B1 (Homo sapiens, UniProt P15121). Nature of the assay: Enzyme Inhibition Assay. The following applies: pH 6.2; 25 °C. The method, then:
The in vitro inhibitory activity of the candidate molecules was determined by recording the decrease of the NADPH absorbance upon enzymatic reduction of […]. The absorbance at 340 nm was monitored with a BMG plate reader. The program GraFit (Version 4.0) was used for fitting the IC50 values.
Usually IC50 stands for the concentration needed to halve the response being measured. Compound `O=C(O)CSc1nnc(-c2ccc([N+](=O)[O-])o2)o1` [2-{[5-(5-nitrofuran-2-yl)-1,3,4-oxadiazol-2-yl]sulfanyl}acetic acid] came in with an IC50 of 4.1 µM.
On to `O=C(O)CCCc1nc(-c2ccccn2)no1` [4-[3-(pyridin-2-yl)-1,2,4-oxadiazol-5-yl]butanoic acid], for which the concentration for half-maximal inhibition (IC50) was 12.4 µM.
Compound `O=C(O)CCCc1nc(-c2cccc([N+](=O)[O-])c2)[n-][o+]1` [Ligand 1] came in with a half-inhibitory concentration (IC50) of 0.53 µM.
`O=C(O)CCCc1nc(-c2ccc(Cl)cc2)no1` [Ligand 8] came in with an IC50 of 17.7 µM.
